Reference: US6043357A, “HIV protease inhibitors” (The University of Queensland, priority 1994, dated 2000)
“Also recorded” adds a separate entry of the source. Where two headings read alike, the source gives them in different places.

Key:
[1] = target: HIV-1 protease (Human immunodeficiency virus type 1 group M subtype B, UniProt P03369); assay: biochemical
Method: HIV-1 protease activity was measured at 37° C. using a continuous fluorimetric assay based on the method of Toth et al., (Toth et al., 1990, Int. J. Pept. Res. 36 544-550). The substrate, 2-aminobenzoyl-threonine-isoleucine-norleucine-(p-nitro)-phenylalanine-glutamine-arginine-NH2 (Abz-NF^* -6), was synthesised by solid phase peptide synthesis (Kent et al., 1991, In: Peptides 1990: Proceedings of the Twenty-First European Peptide Symposium (Girault, E. and Andrew, D. eds.) pp 172-173, ESCOM, Leiden). Enzyme activity was measured as the increase in fluorescence intensity upon substrate hydrolysis. The change in fluorescence intensity was monitored with a Perkin Elmer LS50B luminescence spectrometer fitted with a thermostatted micro cuvette holder. Measurements were carried out using an excitation wavelength of 320 nm (bandwith 5 nm) and an emission wavelength of […] (bandwith 5 nm).
Inhibition assays were routinely carried out at pH 6.5 and μ=0.1 M using a single substrate concentration. The assay mixtures contained 50 μM Abz-NF^* -6 in 100 mM 2-(N-morpholino)ethanesulphonate buffer, containing 10% (v/v) glycerol and 50 μg/ml bovine serum albumin, in a total final volume of 400 μl. Where inhibitors had to be dissolved in dimethyl sulphoxide or other organic solvents, the final concentration of solvent in the control and inhibition assays were kept absolutely constant because of the severe inhibitory effect of some solvents on the enzyme activity (Bergman et al., 1992, 17th Ann. Lorne Conf. on Protein Struct. and Funct. Abstr.). In all assays, the reaction was initiated by the addition of 10 μl of enzyme solution.

[2] = system: HIV; assay: Activity against HIV in cells / cell culture; assay type: cell-based
[3] = Table 7, pH 6.5, 37° C., read-out: IC50
[4] = Table 9, R isomer, read-out: IC50
[5] = Table 10, pH 6.5, 37° C., read-out: IC50
[6] = Table 9, S isomer, read-out: IC50

`CC(C)(C)NC(=O)[C@@H]1CCCN1C[C@H](O)[C@@H]1Cc2ccc(cc2)OCCCC(=O)N[C@@H](CC(N)=O)C(=O)N1` [Compound 39] was tested, and the IC50 ([1]; read-out: IC50) was 490 nM.

With `CC(C)N(C(=O)[C@@H]1CCCN1C[C@@H](O)[C@@H]1Cc2ccc(cc2)OCCCC(=O)N[C@@H](CC(N)=O)C(=O)N1)C(C)C` [Compound 40] the IC50 [1] was 106000 nM and the “protease inhibition, stated in words” value [1] was “much less active”.

With `CC(C)N(C(=O)[C@@H]1CCCN1C[C@H](O)[C@@H]1Cc2ccc(cc2)OCCCC(=O)N[C@@H](CC(N)=O)C(=O)N1)C(C)C` [Compound 41] the IC50 [1] was 290000 nM and the “protease inhibition, stated in words” value [1] was “much less active”.

For `CC(C)(C)NC(=O)[C@@H]1CCCCN1C[C@H](O)[C@@H]1Cc2ccc(cc2)OCCCC(=O)N[C@@H](CC(N)=O)C(=O)N1` [Compound 45], the IC50 [1] was 5600 nM.

With `CC[C@H](C)[C@H](NC(=O)[C@H](Cc1ccccc1)NC[C@@H](O)[C@@H]1Cc2ccc(cc2)OCCCC(=O)N[C@@H](C(C)C)C(=O)N1)C(=O)N[C@H](C(N)=O)C(C)C` [Compound 46] the “protease inhibition, stated in words” value [1] was “there was not a great deal of difference”.

For `CC[C@H](C)[C@H](NC(=O)[C@H](Cc1ccccc1)NC[C@H](O)[C@@H]1Cc2ccc(cc2)OCCCC(=O)N[C@@H](C(C)C)C(=O)N1)C(=O)N[C@H](C(N)=O)C(C)C` [Compound 47], the “protease inhibition, stated in words” value [1] was “there was not a great deal of difference”.

In the case of `CC(C)C[C@@H]1NC(=O)CCCOc2ccc(cc2)C[C@@H]([C@H](O)CN2CCCC[C@H]2C(=O)NC(C)(C)C)NC1=O` [Compound 54], the “protease inhibition, stated in words” value [1] is reported as “slightly better than the isopropyl of 48/49”.

With `CC(C)C[C@@H]1NC(=O)CCCOc2ccc(cc2)C[C@@H]([C@@H](O)CN2CCCC[C@H]2C(=O)NC(C)(C)C)NC1=O` [Compound 55] the “protease inhibition, stated in words” value [1] was “slightly better than the isopropyl of 48/49”.

In the case of `CC(=O)Nc1ccc(S(=O)(=O)N(CCC(C)C)C[C@H](O)[C@@H]2Cc3ccc(cc3)OCCCC(=O)N[C@@H](C(C)C)C(=O)N2)cc1` [Compound 59], the “protease inhibition, stated in words” value [1] is reported as “potent inhibitors of HIV-1 protease”.

`CC(C)CCN(C[C@@H](O)[C@@H]1Cc2ccc(cc2)OCCCC(=O)N[C@@H](C(C)C)C(=O)N1)S(=O)(=O)c1ccc(N)cc1` [Compound 60] was tested, and the “protease inhibition, stated in words” value [1] was “Greater activity; also recorded: potent inhibitors of HIV-1 protease” and the IC50 [1, 3] was 2 nM.

`CC(C)CCN(C[C@@H](O)[C@@H]1Cc2ccc(cc2)OCCCCC(=O)N[C@@H](C(C)C)C(=O)N1)S(=O)(=O)c1ccc(N)cc1` [Compound 62] gave an IC50 [1, 3] of 1 nM.

With `CC(C)CCN(C[C@@H](O)[C@@H]1Cc2ccc(cc2)OCCCCCC(=O)N[C@@H](C(C)C)C(=O)N1)S(=O)(=O)c1ccc(N)cc1` [Compound 64] the IC50 ([1]; read-out: IC50) was 2 nM.

In the case of `CC(C)[C@@H]1NC(=O)CCCOc2ccc(cc2)C[C@@H]([C@H](O)CN2CCN(Cc3ccccc3)CC2C(=O)NC(C)(C)C)NC1=O` (stereo partly shown) [Compound 82], the “protease inhibition, stated in words” value [1] is reported as “increased potency”.

`CC(C)[C@@H]1NC(=O)CCCOc2ccc(cc2)C[C@@H]([C@@H](O)CN2CCN(Cc3ccccc3)CC2C(=O)NC(C)(C)C)NC1=O` (stereo partly shown) [Compound 83] was tested, and the “protease inhibition, stated in words” value [1] was “increased potency”.

With `CC[C@H](C)[C@@H]1NC(=O)[C@@H](NC[C@@H](O)[C@H](Cc2ccccc2)NC(=O)[C@@H](NC(=O)[C@H](CC(C)C)NC(C)=O)C(C)C)Cc2ccc(cc2)OCCCNC1=O` [Compound 87, [2(R),3(S),11'(S),8'(S)]-3-[-Acetyl-(S)-leucinyl-(S)-valinyl]amino-4-phenyl-1-[11'-[7',10'-dioxo-8'-(1-methylpropyl)-2'-oxa-6',9'-diazabicyclo[11.2.2]heptadeca-13',15',16'-triene]amino]butan-2-ol] the “protease inhibition, stated in words” value [1] was “little effect” and the IC50 [1, 4] was 2 nM.

With `CC[C@H](C)[C@@H]1NC(=O)[C@@H](NC[C@@H](O)[C@H](Cc2ccccc2)NC(=O)[C@@H](NC(=O)[C@H](CC(C)C)NC(C)=O)C(C)C)Cc2ccc(cc2)OCCCCNC1=O` [Compound 88] the “protease inhibition, stated in words” value [1] was “little effect” and the IC50 [1, 4] was 5 nM.

`CC[C@H](C)[C@@H]1NC(=O)[C@@H](NC[C@@H](O)[C@H](Cc2ccccc2)NC(=O)OC(C)(C)C)Cc2ccc(cc2)OCCCNC1=O` [Compound 89, [2R, 3S, 11'S, 8'S]-3-[t-butoxycarbonyl]amino-4-phenyl-1-[11'-[7', 10'-dioxo-8'-(1-methylpropyl)-2'-oxa-6',9'-diazabicyclo[11.2.2]heptadeca-13',15',16'-triene]amino]butan-2-ol] showed an IC50 [1, 4] of 15 nM.

Compound `CC[C@H](C)[C@@H]1NC(=O)[C@@H](NC[C@H](Cc2ccccc2)NC(=O)OC(C)(C)C)Cc2ccc(cc2)OCCCNC1=O` [Compound 90, [2S, 11'S, 8'S]-2-[t-butoxycarbonyl]amino-3-phenyl-1-[11'-[7',10'-dioxo-8'-(-1-methylpropyl)-2'-oxa-6',9'-diazabicyclo[11.2.2]heptadeca-13',15',16'-triene]amino]propane] has an IC50 [1, 4] of 150 nM.

`CC[C@H](C)[C@@H]1NC(=O)[C@@H](NC[C@@H](O)[C@H](Cc2ccccc2)NC(=O)O[C@H]2CCOC2)Cc2ccc(cc2)OCCCNC1=O` [Compound 91, [2R, 3S, 11'S, 8'S]-3-[3S-tetrahydrofuranyloxy]amino-4-phenyl-1-[11'-[7',10'-dioxo-8'-(1-methylpropyl)-2'-oxa-6',9'-diazabicyclo[11.2.2]heptadeca-13',15',16'-triene]amino]butan-2-ol] was tested, and the “protease inhibition, stated in words” value [1] was “not better as a P2 filler over the t-butyl group in 89” and the IC50 [1, 4] was 15 nM.

With `CC[C@H](C)[C@@H]1NC(=O)[C@@H](NCC(O)[C@H](Cc2ccccc2)NC(=O)c2cccc(C)c2)Cc2ccc(cc2)OCCCNC1=O` (stereo partly shown) [Compound 92] the IC50 ([1]; read-out: IC50) was 50 nM.

Compound `O=C1N(Cc2ccc(CO)cc2)[C@H](Cc2ccccc2)[C@H](O)[C@@H](O)[C@@H](Cc2ccccc2)N1Cc1ccc(CO)cc1` [Compound 94, reference compound] has an IC50 ([1]; read-out: IC50) of 1 nM.

Compound `CC[C@H](C)[C@@H]1NC(=O)[C@@H](NC[C@@H](O)[C@H](Cc2ccc(OCC(=O)O)cc2)NC(=O)OC(C)(C)C)Cc2ccc(cc2)OCCCNC1=O` [Compound 99] has an IC50 [1, 5] of 5 nM.

`CC[C@H](C)[C@@H]1NC(=O)[C@@H](NC[C@@H](O)[C@H](Cc2ccc(OCC(=O)OC)cc2)NC(=O)OC(C)(C)C)Cc2ccc(cc2)OCCCNC1=O` [Compound 101] showed an IC50 [1, 5] of 2 nM.

Work on `CCCCCCOC(=O)COc1ccc(C[C@H](NC(=O)OC(C)(C)C)[C@H](O)CN[C@H]2Cc3ccc(cc3)OCCCNC(=O)[C@H]([C@@H](C)CC)NC2=O)cc1` [Compound 105] yielded an IC50 [1, 5] of 2 nM.

For `CC(C)(C)OC(=O)N[C@@H](Cc1ccccc1)[C@H](O)CN[C@H]1Cc2ccc(cc2)OCCCNC(=O)[C@@H](CCC(N)=O)NC1=O` [Compound 107], the “protease inhibition, stated in words” value [1] was “slightly enhanced activity” and the IC50 [1, 5] was 250 nM.

With `CC(C)(C)OC(=O)N[C@@H](Cc1ccccc1)[C@@H](O)CN[C@H]1Cc2ccc(cc2)OCCCNC(=O)[C@@H](CCC(N)=O)NC1=O` [Compound 108] the “protease inhibition, stated in words” value [1] was “slightly enhanced activity”.

`CC[C@H](C)[C@@H]1NC(=O)[C@@H](NC[C@@H](O)[C@@H]2Cc3ccc(cc3)OCCCC(=O)N[C@@H](CC(N)=O)C(=O)N2)Cc2ccc(cc2)OCCCNC1=O` [Compound 109] was tested, and the “potency relative to compound 110” value [1] was 100 -fold.

Work on `CC[C@H](C)[C@@H]1NC(=O)[C@@H](NC[C@@H](O)[C@@H]2Cc3ccc(cc3)OCCCC(=O)N[C@@H](C(C)C)C(=O)N2)Cc2ccc(cc2)OCCCNC1=O` [Compound 111] yielded an IC50 ([1]; Table 11, pH 6.5, 37° C., read-out: IC50) of 8 nM and an IC50 ([1]; read-out: IC50) of 1 nM.

With `CC[C@H](C)[C@@H]1NC(=O)[C@@H]2CN(CCCCCNC1=O)CCN2C[C@@H](O)[C@@H]1Cc2ccc(cc2)OCCCC(=O)N[C@@H](C(C)C)C(=O)N1` [Compound 123] the “protease inhibition, stated in words” value [1] was “more successfully mimics JG-365”.

For `CC(C)C1NC(=O)CCCOc2ccc(cc2)CC(C(O)CNC2Cc3ccc(cc3)OCCCNC(=O)C(CCC(N)=O)NC2=O)NC1=O` (stereo not shown) [Compound 131], the “protease inhibition, stated in words” value [1] was “quite active”.

With “Ac-LNFPIV-NH2 [Compound 85, reference compound]” the IC50 [1, 4] was 60 nM and the IC50 [1, 6] was 9 nM.

In the case of “Ac-LVFFIV-NH2 [Compound 86, reference compound]”, the IC50 [1, 4] is reported as 5 nM.

“Ac-SLNFPIV-NH2 [Compound 84, reference compound]” showed an IC50 [1, 4] of 22 nM and an IC50 [1, 6] of 1 nM.

In the case of “Ac-Ser-Leu-Asn-Phe-[CHOH--CH2 ]-Pro-Ile-Val-OMe (Ac-SLNFPIV-OMe; also: hydroxyethylene isostere [CHOH-CH2] replaces the Phe-Pro amide bond) [JG-365, reference compound]”, the IC50 ([1]; R-isomer of JG-365, pH 6.5, 37° C., read-out: IC50 (Inhibitor Potency)) is reported as 44 nM, the IC50 ([1]; S-isomer of JG-365, pH 6.5, 37° C., read-out: IC50 (Inhibitor Potency)) is reported as 6 nM and the “anti-viral activity, stated in words” value [2] is reported as “do not have anti-viral activity”. For the same compound, the “activity against HIV in cells” value ([2]; at 100 μM) was “inactive”.

“AcLeuAsnPhe[^* CHOH--CH2 N]ProIleValOMe [Compound 1, reference compound]” was tested, and the IC50 ([1]; AcLeuAsnPhe[CHOH--CH2 N]ProIleValOMe, pH 6.5, 37° C., read-out: IC50) was 60 nM and the “reduction of protease inhibition on truncation of the Serine” value ([1]; versus JG-365) was 10 -fold.
